Results taken from the METLIN SMRT retention time set (Domingo-Almenara et al. 2019).

Assay: gradient 5% acetonitrile 3 min, to 50% in 2 min, to 85% in 15 min, held 3 min, 100 µL/min
Conditions: column: Zorbax Extend-C18 2.1 x 50 mm; eluents: water / acetonitrile, 0.1% formic acid
Outline: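 Pure standards were analyzed in mixtures of ~100 molecules using HPLC coupled to a quadrupole time-of-flight mass spectrometer, in both positive and negative ionization mode. Separation used a Zorbax Extend-C18 column (2.1 × 50 mm, 1.8 μm) at 100 μL/min, with water and acetonitrile each containing 0.1% formic acid. Dead and dwell volumes were 40 μL and 900 μL, and data were collected over 3 months. Retention time was read from computationally picked adduct peaks, each inspected manually.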

RP-LC retention time [s] | SMILES
596 | Cc1cccc2c(C(=O)O)cc(N3CCN(C)CC3)nc12
609 | COC(=O)C1=C(CN2CCOCC2)NC(=O)NC1c1ccc(C)cc1C (stereo unspecified)
662 | COc1cccc(NC(=O)NCC(c2cccnc2)c2c[nH]c3ccccc23)c1 (stereo unspecified)
1340 | Cc1ccc(-c2nc(Nc3ccccc3F)sc2C)cc1
816 | CCn1ccc(C(=O)N2CCCC2c2ccc(F)cc2)n1 (stereo unspecified)
719 | CCC(=O)Nc1nc2cc(NC(=O)C3CCN(S(=O)(=O)N4CCOCC4)CC3)ccc2s1
1190 | Cc1ccccc1-n1c(SCc2nc(-c3ccccc3)no2)nc2cc3c(cc2c1=O)OCO3
972 | Cc1nc(N2CCC(C(=O)Nc3cc(F)ccc3F)CC2)c2c(C)c(C)oc2n1
827 | Cc1ncc(-c2nc(-c3ccccc3)cs2)c(=O)n1CC(=O)N1CCCC1
728 | CCCNC(=O)C1CCN(c2ccc(SCC(=O)Nc3ccc(C(F)(F)F)cc3)nn2)CC1
1010 | CCc1nc(-c2csc(S(=O)(=O)N3CCCC(C(=O)Nc4c(C)cccc4C)C3)c2)no1 (stereo unspecified)
730 | CCCC(NC(=O)Cc1ccc(OC)cc1Cl)C(=O)Nc1nc2ccccc2[nH]1 (stereo unspecified)
619 | COc1ccc(OCC(=O)N2CCN(c3cc(C(C)C)n4cnnc4n3)CC2)cc1
973 | CC(C)CCNC(=O)C1(C)CN(S(=O)(=O)c2ccccc2)CC(=O)N1Cc1ccccc1 (stereo unspecified)
733 | COCCN(CCOC)C(=O)Cc1csc(NC(=O)Nc2ccc(Cl)cc2)n1
780 | Cc1ccc(C)n1-c1nnc(N2CCCC(C(=O)NC3CC3)C2)s1 (stereo unspecified)
1110 | COc1ccc(S(=O)(=O)N2CCCC(C(=O)Nc3cccc(Br)c3)C2)cc1Cl (stereo unspecified)
919 | O=C(Cn1cnc2c(sc3nc(-c4ccccc4)ccc32)c1=O)NCc1cccs1
836 | CCc1c2c(nc3sc(C(=O)NCC4CCCO4)c(N)c13)CC(C)(C)CC2=O (stereo unspecified)
637 | Cc1ccc(S(=O)(=O)NCCn2ncccc2=O)s1
910 | CCOc1ccc(-c2noc(Cn3c(=O)n(-c4ccccc4)c(=O)c4sccc43)n2)cc1OC
879 | Cc1cc(S(=O)(=O)N(C)CC2CCOCC2)ccc1F

RP-LC retention time [s] | SMILES
693 | Cc1cc(C)cc(Nc2c(C(=O)N3CCC(C)CC3)cnc3nc(C)ccc23)c1
824 | Cc1ccc(NC(=O)C2CCCN(c3ncnc4c3nc3n4CCCCC3)C2)c(C)c1 (stereo unspecified)
661 | CCOc1ccc(-c2[nH]ncc2CN2C[C@@H]3CCN(S(C)(=O)=O)C[C@]3(CF)C2)cc1
705 | Cc1ccc(-n2cc(C(=O)O)nn2)c(F)c1
983 | Cc1ccc(NC(=O)CC(C)S(=O)(=O)c2ccc3c(c2)CCN3C(=O)C2CC2)cc1N(C)C (stereo unspecified)
556 | O=C1N(C2CCN(Cc3ccccn3)CC2)C(c2ccncc2)C12CCCCC2 (stereo unspecified)
824 | COc1ccc(NC(=O)C2CCN(S(C)(=O)=O)c3ccccc3O2)cc1 (stereo unspecified)
833 | COc1ccc(NC(=O)Cn2c(=O)n(-c3ccc(C)cc3)c3ncccc32)c(C)c1
603 | COc1ccc(N2CCN(C(=O)c3cn4ccccc4n3)CC2)cc1
576 | Cc1ccc2c(c1)N(C(=O)CCC(=O)NCCCN1CCC(N3CCCCC3)CC1)CC(C)O2 (stereo unspecified)
1120 | CCOc1ccc2cccc(NC(=O)Cc3cccc(OC)c3)c2n1
726 | Cc1nnc2ccc(N3CCCC3)nn12
780 | Cc1ccc(Cn2c(C)c3cnn(CC(=O)NCC4CCCO4)c(=O)c3c2C)cc1 (stereo unspecified)
764 | O=C(Cc1ccccc1)NC1CCN(c2cc(-c3ccc(Cl)cc3)[nH]n2)C1 (stereo unspecified)
697 | O=C1COc2ccc(S(=O)(=O)N3CCC(C(=O)NCc4ccco4)CC3)cc2N1
820 | CO[C@H]1C(=O)N(C(C)C)[C@H]1C1CCN(C(=O)Nc2ccc(C)c(C)c2)CC1
954 | COc1cc(OC)c(NC(=O)CN2C(=O)C(C)(C)c3ccccc32)cc1Cl
846 | COCc1cc(=O)n(CC(=O)Nc2ccccc2OC)c(N2CCOCC2)n1
762 | Cc1ccccc1CNC(=O)c1cn2c(n1)CCCC2
882 | CC1(C(=O)NC2CCCCCC2)CN(S(C)(=O)=O)CC(=O)N1c1cccc(Cl)c1 (stereo unspecified)
1220 | Cc1ccc(-n2nc(C)c3c(C(F)(F)F)cc(OCC(=O)NCc4ccco4)nc32)cc1
647 | CCCNC(=O)c1nc2cccnc2n(C)c1=O

RP-LC retention time [s] | SMILES
518 | O=C(NCc1ccccn1)C1CCc2sc(C(=O)N3CCCC3)cc2C1 (stereo unspecified)
740 | COc1ccc(CCNC(=O)NCCS(=O)(=O)c2c(C)n(C)c3ccccc23)cc1
1290 | CCc1nc(-c2ccc(-c3noc(COc4ccccc4)n3)cc2)cs1
589 | CC(C)N1CCN(C(=O)c2cc(-c3ccccc3)n[nH]2)CC1
652 | CC(=O)NCc1csc(C2CCN(C(=O)c3cc(F)ccc3F)CC2)n1
729 | CCN1CCn2cc(S(=O)(=O)Nc3cccc(C)c3C)cc2C1=O
828 | Cc1cc(F)ccc1NS(=O)(=O)c1cc2n(c1)CCN(CC(C)C)C2=O
671 | Cc1ccnc(N2CCCC(C(=O)NCCN(CCc3ccccc3)Cc3ccco3)C2)n1 (stereo unspecified)
540 | CCOC(=O)N1CCN(C(=S)Nc2ccc3nc(N4CCN(C)CC4)cc(C)c3c2)CC1
747 | CCc1nc2cc(N3CCCC(C(=O)NC(C)C)C3)cnc2nc1CC (stereo unspecified)
896 | Cn1c(=O)sc2cc(S(=O)(=O)N3CCC(C(=O)N4CCc5ccccc5C4)CC3)ccc21
909 | COc1ccc(-c2cc(C(=O)N3CCN(S(=O)(=O)c4ccc(Cl)cc4)CC3)[nH]n2)cc1
683 | CCCNC(=O)c1c(OCC2CC2)cc(=O)n2c1CCCCC2
554 | CCN1CCN(CCCNC(=O)C2CCCN(c3nn4c(=O)c5c(nc4s3)CCCC5)C2)CC1 (stereo unspecified)
711 | O=C(Cc1nnc(-c2ccc3ncccc3c2)o1)NCc1ccccc1Cl
778 | Cc1ccccc1-n1c(Cn2nc(-c3cccc(O)c3)c3c(N)ncnc32)nc2cccc(C)c2c1=O
859 | Cc1c(C(=O)N2CCOCC2)sc2nc(-c3cccc(F)c3)c(NC3CCCC3)n12
895 | COCCC(=O)Nc1cnc(-c2ccc(C(F)(F)F)cc2)nc1
788 | Nc1nc(CN2CCN(c3ccccn3)CC2)nc(Nc2cccc(Cl)c2)n1
637 | O=C(c1ccc(=O)n(CCN2CCOCC2)c1)N1CCC(Cc2ccccc2)CC1
670 | CCOC(=O)C1=C(CN(C)Cc2ccccc2)NC(=O)NC1c1ccc(C)cc1 (stereo unspecified)
611 | COCC1CN(S(=O)(=O)c2cc(F)ccc2OC)CC12CCNCC2 (stereo unspecified)
